# PMC8391236, “Effect of Pterostilbene, a Natural Derivative of Resveratrol, in the Treatment of Colorectal Cancer through Top1/Tdp1-Mediated DNA Repair Pathway” (Cancers, 2021)
# Assays:
# Top1 in CL187 cells = assay: Intracellular Top1 enzyme activity assay; format: cell-based, Human; conditions: CL187 cells treated 6 h
# Description: CL187 cells were treated with different concentrations of drugs for 6 h. The supernatant was discarded, and the cells were collected. The extracts of cytoplasm, mitochondria, and nucleus were obtained by the same method as described in Section 2.4.7. The protein concentration of each extract was detected by BCA kit. Enzyme activity reaction was carried out by using 125 ng super helical DNA (pHOT-1) and cell extract. The protein concentration of the extract was guaranteed to be the same in each group. The mixture solution of the pHOT-1 and the cell extract was added into the reaction buffer and incubated for 30 min at 37 °C. The reaction was terminated with loading buffer. The agarose gel electrophoresis was performed, and the images were collected.
# [1] = test system: subcutaneous CL187 xenograft; assay: Subcutaneous CL187 xenograft model; format: in vivo, BABLc/nude mice
# Description: CL187 cell suspension was collected at 1 × 10^6 /mL, and 0.1 mL cell was inoculated into the right inguinal region of nude mice. The tumor was no metastasis. The diameter of the transplanted tumor in nude mice was measured with a vernier caliper. After 16-day inoculation (the tumor grew to 90 mm^3), the animals were randomly divided into 7 groups (6 mice per group). The drug was administered by intraperitoneal injection. Blank control group was injected with saline. […] According to the preliminary test results. […] Positive control group was injected with irinotecan (20 mg/kg) twice a week, During the experiment, the changes of body weight of nude mice were recorded, and the anti-tumor effect of the samples was dynamically investigated by measuring tumor diameter. On Day 31 post treatment, the nude mice were sacrificed, and the tumor blocks were removed surgically, weighed, and recorded.
# Tdp1 = assay: Western blot of Tdp1 protein in cells; format: cell-based, Human; conditions: 6 h
# Description: CL187 cells were treated with RE or PTE for 6 or 12 h, collected, and placed into lysis buffer (KeyGEN BioTECH, Nanjing, China). The total protein content in the cell lysates was measured using a BCA kit. Equivalent amount of total protein (30 μg) was loaded onto 10% SDS-PAGE gel. Electrophoresis was performed at 80 V for 25 min. After the sample went through concentrated gel, the voltage was adjusted to 120 V. Electrophoresis was stopped when the bromophenol blue band approached the bottom of the gel. After being transferred to PVDF membranes, the samples were incubated separately with 3 types of primary antibodies Top1, Tdp1, and P53 rabbit mAb (CST, Boston, MA, USA), followed by the incubation with secondary antibody goat anti-rabbit IgG (HRP)-conjugated (1:3000). ECL kit (New Cell and Molecular Biotech, Suzhou, China) was used for color development, and the images were collected by the gel imaging system (Tanon-5200, Shanghai, China).
# CL187 cells = assay: Intracellular drug distribution (LC-MS/MS); format: in vitro ADME, Human; conditions: CL187 cells incubated 6 h; nucleus, mitochondria, cytoplasm extracts
# Description: CL187 cells were inoculated in 6-well plates, until the well was full of the cells. Then the supernatant was discarded, and the cells were washed with PBS three times. The cells were added with the different concentrations of PTE or RE and incubated for 6 h. After supernatant was discarded, the cells were washed with cold Hank’s solution for three times to terminate cell metabolism. Cell cytoplasm, nucleus, and mitochondria were extracted with the nuclear and mitochondrial extraction kit (KeyGEN BioTECH, Nanjing, China). Cells were resuspended with 1.5 mL Lysis Buffer and transferred to a 2 mL glass homogenizer for grinding (0–4 °C ice bath). The homogenate was collected and centrifuged at 800× g at 4 °C for 5 min. The nuclei were distributed in the precipitate, while the mitochondria were distributed in the supernatant. […] The protein concentration of each extract was detected by the BCA kit.
# The drug contents of the extracted cell cytoplasm, nucleus, and mitochondria were determined by LC-MS/MS. […] The calibration range for the quantitation of each compound in all cellular components was 10 to 10,000 ng/mL. […]
# [2] = 25 mg/kg i.p. once a day, Day 31
# [3] = 50 mg/kg i.p. once a day, Day 31
# [4] = 100 mg/kg i.p. once a day, Day 31
# [5] = 200 mg/kg i.p. once a day, Day 31
smiles,measurement,setting,value
"COc1cc(/C=C/c2ccc(O)cc2)cc(OC)c1 [PTE, 3,5-dimethoxy-4′-hydroxy-trans-stilbene]",concentration with the same inhibitory effect on intracellular Top1 enzyme activity,Top1 in CL187 cells; cell extracts + SC DNA,20 µM
same,Top1 enzyme activity in mitochondria,Top1 in CL187 cells; CPT at 50 μM,significantly inhibited
same,"Relative Tumor Proliferation Rate (T/C, %)",[1]; [2],53.53%
same,"Tumor Inhibitory Rate (TGI, %)",[1]; [2],54.24 ± 4.80%
same,Tumor Volume,[1]; [2],1.725 ± 0.203 ** cm^3
same,Tumor Weight,[1]; [2],1.60 ± 0.17 g
same,TGI,"[1]; 25 mg/kg, 31 days",54.24 ± 4.80%
same,"Relative Tumor Proliferation Rate (T/C, %)",[1]; [3],39.56%
same,Tumor Volume,[1]; [3],1.243 ± 0.189 *** cm^3
same,Tumor Weight,[1]; [3],1.39 ± 0.19 g
same,"Relative Tumor Proliferation Rate (T/C, %)",[1]; [4],24.20%
same,Tumor Volume,[1]; [4],0.779 ± 0.168 *** cm^3
same,Tumor Weight,[1]; [4],0.96 ± 0.11 g
same,"Relative Tumor Proliferation Rate (T/C, %)",[1]; [5],20.71%
same,Tumor Volume,[1]; [5],0.623 ± 0.158 *** cm^3
same,Tumor Weight,[1]; [5],0.73 ± 0.09 g
same,adverse reactions during the entire treatment process,"[1]; subcutaneous CL187 xenograft nude mice, CPT-11 20 mg/kg, PTE 25-200 mg/kg i.p.",did not have the above-mentioned adverse reactions
same,Tdp1 protein content,Tdp1; Tdp1-over CL187 cells,reduced in dese-dependent manner
same,Tdp1 protein content,Tdp1; siRNA-Top1 CL187 cells,reduced in a dose-dependent manner
same,Tdp1 protein content,Tdp1; wild-type CL187 cells,"decreased in PTE treatment group, but neither in dese-dependent and significant manner"
same,concentration of drug in cells (maximum),CL187 cells,more than 70.0 ng/μg
